Measurements reported in patent US20240335548A1, “MACROMOLECULES” (Starpharma Pty Ltd, priority 2011, published 2024).

Tests used:
[1] = day 16, one day after final dose
Procedure: The 20 mice were randomised into 5 groups of four mice (mean tumour volume ˜90 mm^3). Animals were eye bled in the morning for baseline blood cell counts and then drug dosing commenced later that day (day 1). […] A second eye bleed was performed on day 11 (Table 7 A-C). Mice were killed one day following the final drug dose (day 16).

[2] = system: MDA-MB-231 tumours; assay: Xenograft MDA-MB-231 efficacy study; assay type: in vivo, female Balb/c nude mice
[3] = Pharmacokinetic analysis, plasma half-life after IV administration; details: tritium labelled, IV administration into rats
Procedure: The plasma half-lives of tritium labelled docetaxel and the construct from Experiment 8 (c) (prepared using tritium labelled docetaxel) after IV administration into rats were determined (Kaminskas, L. M., Boyd, B. J., Karellas, P., Krippner, G. Y., Lessene, R., Kelly, B and Porter, C. J. H. “The Impact of Molecular Weight and PEG Chain Length on the Systemic Pharmacokinetics of PEGylated Poly-L-Lysine Dendrimers” Molecular Pharm. 2008, 5, 449-463).

[4] = Water solubility study on drug loaded dendrimers; assay type: physicochemical; details: for Water solubility of dendrimer: deionised water, until full dissolution; for Equivalent drug solubility on dendrimer: water solubility x % drug loading/100
Procedure: Protocol: To 30 mg of dendrimer (freeze-dried from water) was added 100 μL of deionised water. After mixing for 10 minutes, additional aliquots of water (10-30 μL per addition) were added with vortexing and incubation for 10 mins until full dissolution was obtained. This amount is represented in Table 1 as the water solubility of the dendrimer. The equivalent drug solubility is determined by multiplying the % drug loading/100 and is represented in Table 1 (column 3) as Equivalent drug solubility on dendrimer. Finally, the fold increase is obtained by dividing the Equivalent drug solubility on dendrimer by the solubility of the drug and is represented in Table 1 (column 4).

[5] = Plasma stability study: docetaxel release in mouse plasma; assay type: in vitro ADME; details: 37° C.
Procedure: Protocol: To 0.5 mL of mouse plasma was added 0.1 mL of dendrimer solution (2 mg/mL, drug equivalent in saline). The mixtures were vortexed (30 s) then incubated at 37° C. At various timepoints (0.5, 2.5, 4.5, 22 hours) 0.1 mL aliquots were removed and added to 0.2 mL ACN. The resulting mixtures were vortexed (30 s), centrifuged (10 min, 4° C.) filtered and analysed by HPLC (C8, 3.9×150 mm, 5 μm, wavelength=243 nm, 10 μL injections, gradient: 40-80% ACN/H2O (1-7 min), 80% ACN (7-9 min), 80-40% ACN (9-11 min), 40% ACN (11-15 min), 10 mM ammonium formate, pH 7.40) which when compared against a standard (2 mg//mL) provided the concentration of free docetaxel in the sample.

[6] = system: H460 (Lung); assay: Cell growth inhibition SRB assay; assay type: cell-based
Procedure: (§1) All solutions were prepared in saline (except docetaxel which was made in ethanol). All solutions were stored at −20° C. All values were based on the equivalent drug loading.

[7] = system: PC-3 (Prostate); assay: Cell growth inhibition SRB assay; assay type: cell-based
Procedure: as §1

[8] = system: ES2 (Ovarian); assay: Cell growth inhibition SRB assay; assay type: cell-based
Procedure: as §1

[9] = system: HCT116 (Colon); assay: Cell growth inhibition SRB assay; assay type: cell-based
Procedure: as §1

[10] = system: HT29 (Colon); assay: Cell growth inhibition SRB assay; assay type: cell-based
Procedure: as §1

[11] = system: DU145 (Prostate); assay: Cell growth inhibition SRB assay; assay type: cell-based
Procedure: as §1

[12] = system: A2058 (Melanoma); assay: Cell growth inhibition SRB assay; assay type: cell-based
Procedure: as §1

[13] = system: MDA-MB-231 (Breast); assay: Cell growth inhibition SRB assay; assay type: cell-based
Procedure: as §1

[14] = system: A549 (Lung); assay: Cell growth inhibition SRB assay; assay type: cell-based
Procedure: as §1

[15] = system: MCAS (Ovarian); assay: Cell growth inhibition SRB assay; assay type: cell-based
Procedure: as §1

[16] = system: MDA-MB-231 tumour xenografts; assay: MDA-MB-231 mouse xenograft breast cancer model, SPL8996, SPL9005 and SPL9006 study
Procedure: (§3) References to amounts dosed in mg/kg for the dendrimeric compounds are to the amounts of cabazitaxel that may theoretically be released by the dendrimers.
(§4) Each of the dendrimers was pre-weighed in glass vials and stored at 20° C. until use, and dissolved in saline immediately prior to dosing. Cabazitaxel was purchased from a commercial supplier.
(§5) Female Balb/c nude mice (age 7 weeks) were inoculated subcutaneously on the flank with 3.5×10^6 MDA-MB-231 cells in PBS:Matrigel (1:1). Mice were weighed and tumours measured twice weekly using electronic callipers. Tumour volume (mm^3) was calculated as length (mm)/2×width (mm)^2.
Mice received a small dish containing a food supplement (mixed with food dust) daily. The experiment was ended on day 150 or earlier if an ethical endpoint was met.

[17] = Particle sizing using Dynamic Light Scattering; assay type: physicochemical
[18] = system: A2780; assay: IC50 using the MTT assay; assay type: cell-based; details: 72 hours
Procedure: (§2) The IC50 using the MTT assay [Wilson, Anne P. (2000). “Chapter 7: Cytotoxicity and viability”. In Masters, John R. W. Animal Cell Culture: A Practical Approach. Vol. 1 (3rd ed.). Oxford: Oxford University Press] was determined against various cancer cell lines after 72 hours.

[19] = system: PC-3; assay: IC50 using the MTT assay; assay type: cell-based; details: 72 hours
Procedure: as §2

[20] = system: H460; assay: IC50 using the MTT assay; assay type: cell-based; details: 72 hours
Procedure: as §2

[21] = system: HCT-116; assay: IC50 using the MTT assay; assay type: cell-based; details: 72 hours
Procedure: as §2

[22] = system: A549; assay: IC50 using the MTT assay; assay type: cell-based; details: 72 hours
Procedure: as §2

[23] = system: MCF-7; assay: IC50 using the MTT assay; assay type: cell-based; details: 72 hours
Procedure: as §2

[24] = system: DU-145; assay: IC50 using the MTT assay; assay type: cell-based; details: 72 hours
Procedure: as §2

[25] = system: HT-29; assay: IC50 using the MTT assay; assay type: cell-based; details: 72 hours
Procedure: as §2

[26] = free cabazitaxel, triphasic PK model; cited from earlier work
[27] = system: MDA-MB-231 tumour xenografts; assay: MDA-MB-231 mouse xenograft breast cancer model, SPL9048 study
Procedure: as §3, §4, §5
Mice received a small dish containing a food supplement (mixed with food dust) daily. The experiment was ended on day 113 or earlier if an ethical endpoint was met.

[28] = Toxicity studies in rats (neutropenia, hematology, microscopic changes); details: 2.5 mg/kg
Description: References to amounts dosed in mg/kg for the dendrimeric compound are to the amounts of cabazitaxel that may theoretically be released by the dendrimer.

[29] = Day 1, i.v. day 1, 8, 15, docetaxel 15 mg/kg, Exp 3 (b) 20 mg/kg, Exp 8 (c) […] mg/kg

Compound	Mean Tumour Weights (g) (sd) [1]	Mean tumour Volumne mm^3 (sd) [2, 29]	Mean tumour Volumne mm^3 (sd) ([2]; Day 9, same doses)	Mean tumour Volumne mm^3 (sd) ([2]; Day 19, same doses)	Mean tumour Volumne mm^3 (sd) ([2]; Day 29, same doses)	Mean tumour Volumne mm^3 (sd) ([2]; Day 40, same doses)	Mean tumour Volumne mm^3 (sd) ([2]; Day 61, same doses)	Mean tumour Volumne mm^3 (sd) ([2]; Day 81, same doses)	Mean tumour Volumne mm^3 (sd) ([2]; Day 100, same doses)	Mean tumour Volumne mm^3 (sd) ([2]; Day 120, same doses)	Water solubility of dendrimer [4] [mg/mL]	Equivalent drug solubility on dendrimer [4] [mg/mL]	Docetaxel release in plasma ([5]; 0.5 hours)	Docetaxel release in plasma ([5]; 2.5 hours)	Docetaxel release in plasma ([5]; 22 hours)	GI50 [6] [nM]	GI50 [7] [nM]	GI50 [8] [nM]	other results
BHALys[Lys]32[α-TDA-DTX]32[ε-PEG1100]32 [Example 8 (c)]	0.033	111.73 (6.41), mm^3	108.86 (9.31), mm^3	30.59 (1.64), mm^3	11.58 (1.2), mm^3	5.75 (0.92), mm^3	4 (0), mm^3	0.5 (0), mm^3	1.67 (0.74), mm^3	16.2 (10.24), mm^3	131	41	4.5 percentage of total docetaxel	13.5 percentage of total docetaxel	43 percentage of total docetaxel	7	9.5	12	plasma half-life [3]: approximately 30 hour
BHALys[Lys]32[α-DGA-DTX]32[ε-PEG1100]32 [Example 3 (b)]	0.020	111.74 (6.65), mm^3	84.02 (6.33), mm^3	28.26 (1.91), mm^3	10.46 (0.5), mm^3	5.92 (1.31), mm^3	4 (0), mm^3	0.5 (0), mm^3	0.5 (0), mm^3	0.37 (0.12), mm^3	89	23	8.5 percentage of total docetaxel	32.5 percentage of total docetaxel	73 percentage of total docetaxel	8	4.5	4	GI50 [9]: 1 nM; GI50 [10]: 2 nM; GI50 [11]: 4 nM; GI50 [12]: 2 nM; GI50 [13]: 0.5 nM; GI50 [14]: 3.5 nM; GI50 [15]: 7 nM
N3-PEG24-CO(NPN)[Lys]32[α-TDA-Cabazitaxel]32†[ε-PEG˜1100]32‡ [SPL8996]																			tumour regrowth at the conclusion of the study on day 150 ([16]; 28 mg/kg): one tumour in the SPL-8996 group which began to regrow by day 77
BHALys[Lys]32[α-TDA-DTX]32[ε-PolyPEG2000]32 [Example 19]											477	109							Fold increase in drug solubility ([4]; equivalent drug solubility divided by solubility of the drug): 21900; particle size, range of concentration dependent averages [17]: 10.9-15.5 nm; IC50 [18]: 6.3 nM; IC50 [19]: 7.4 nM; IC50 [20]: 23.7 nM; IC50 [21]: 6.5 nM; IC50 [22]: 7.7 nM; IC50 [23]: 6.3 nM; IC50 [24]: 15.5 nM; IC50 [25]: 5.9 nM
CO[C@H]1C(=O)[C@]2(C)[C@@H](OC)C[C@H]3OC[C@@]3(OC(C)=O)[C@H]2[C@H](OC(=O)c2ccccc2)[C@]2(O)C[C@H](OC(=O)[C@H](O)[C@@H](NC(=O)OC(C)(C)C)c3ccccc3)C(C)=C1C2(C)C [cabazitaxel, reference compound]																			resumption of tumour growth by day ([16]; cabazitaxel 10 mg/kg, days 1, 8 and 22): ≤ 60 days; initial-phase half-life [26]: 4 min; intermediate-phase half-life [26]: 2 h; terminal-phase half-life [26]: 95 h; tumours reaching an ethical tumour volume endpoint by day 98 ([27]; cabazitaxel 9 mg/kg): 9 of 10; tumour regrowth evident by day ([27]; cabazitaxel 9 mg/kg, days 1, 8 and 15): ≤ 43 days
BHALys[Lys]32[α-DGA-Cabazitaxel]32†[ε-PEG˜2100]32‡ [SPL9048]																			toxicity compared to Jevtana®/cabazitaxel [28]: Reduced toxicity; antitumour efficacy (tumour response) ([27]; FIG. 1, i.v. days 1, 8 and 15, SPL-9048 9 and 10 mg/kg): complete tumour regression; tolerability ([27]; FIG. 2, body weight): overall well tolerated; survival compared with cabazitaxel ([27]; both doses (9 and 10 mg/kg)): significantly extended survival beyond that of cabazitaxel
